Test results taken from ChEMBL document CHEMBL6109084 (Eur J Med Chem, 2025).
pIC50: −log10 of the molar value. In brackets after ≈: the same amount, converted by molar mass. Each block holds one compound with its values, some of them ahead of it. Activity calls are given as the source filed them. The rule behind the calls is not given here.

Tests used:
[1] = test system: Plasma; test: Anticoagulant activity in citrated human plasma assessed as prolongation of activated partial thromboplastin time at 1 uM incubated for 3 mins by aPTT reagent based automated coagulometric analysis relative to control; type: functional; conditions: 0.05 h
[2] = Plasma protein binding in human; type: ADME, cell-free; conditions: read-out: PPB (converted)
[3] = biological target: Coagulation factor XI (Homo sapiens, UniProt P03951); test: Inhibition of human FXIa using p-Glu-Pro-Arg-pNA.HCl as substrate incubated for 30 mins followed by substrate addition and measured after 60 mins by microplate reader analysis
[4] = test system: Plasma; test: Anticoagulant activity in citrated human plasma assessed as prolongation of activated partial thromboplastin time incubated for 3 mins by aPTT reagent based automated coagulometric analysis; type: functional; conditions: for EC1.5: 0.05 h
[5] = Selectivity index, ratio of IC50 for inhibition of FXa (unknown origin) using Z-D-Arg-Gly-Arg-pNA.2HCl as substrate to IC50 for inhibition of human FXIa using p-Glu-Pro-Arg-pNA.HCl as substrate
[6] = Selectivity index, ratio of IC50 for inhibition of plasmin (unknown origin) using PyroGlu-Phe-Lys-pNA.HCl as substrate to IC50 for inhibition of human FXIa using p-Glu-Pro-Arg-pNA.HCl as substrate
[7] = biological target: Chymotrypsin (Homo sapiens, UniProt Q99895+P17538+P40313+Q6GPI1); test: Inhibition of chymotrypsin (unknown origin) using N-Suc-Ala-Ala-Pro-Phe-pNA as substrate incubated for 30 mins followed by substrate addition and measured after 60 mins by microplate reader analysis; type: protein assay
[8] = test system: Plasma; test: Anticoagulant activity in mouse plasma assessed as prolongation of activated partial thromboplastin time incubated for 3 mins by aPTT reagent based automated coagulometric analysis; type: functional; conditions: 0.05 h
[9] = biological target: Tissue-type plasminogen activator (Homo sapiens, UniProt P00750); test: Inhibition of tPA (unknown origin) using H-D-Ile-Pro-Arg-pNA-2HCl as substrate incubated for 30 mins followed by substrate addition and measured after 60 mins by microplate reader analysis
[10] = biological target: Trypsin (Homo sapiens, UniProt P07477+P07478+P35030); test: Inhibition of trypsin (unknown origin) using Bz-Ile-Glu(gamma-OR)-Gly-Arg-pNA.HCl as substrate incubated for 30 mins followed by substrate addition and measured after 60 mins by microplate reader analysis; type: protein assay
[11] = Selectivity index, ratio of IC50 for inhibition of chymotrypsin (unknown origin) using N-Suc-Ala-Ala-Pro-Phe-pNA as substrate to IC50 for inhibition of human FXIa using p-Glu-Pro-Arg-pNA.HCl as substrate
[12] = biological target: Plasminogen (Homo sapiens, UniProt P00747); test: Inhibition of plasmin (unknown origin) using PyroGlu-Phe-Lys-pNA.HCl as substrate incubated for 30 mins followed by substrate addition and measured after 60 mins by microplate reader analysis
[13] = biological target: Coagulation factor X (Homo sapiens, UniProt P00742); test: Inhibition of FXa (unknown origin) using Z-D-Arg-Gly-Arg-pNA.2HCl as substrate incubated for 30 mins followed by substrate addition and measured after 60 mins by microplate reader analysis
[14] = biological target: T1, Coagulation factor XII (Homo sapiens, UniProt P00748); test: Inhibition of FXIIa (unknown origin) using H-D-ProPhe-Arg-pNA.2HCl as substrate incubated for 30 mins followed by substrate addition and measured after 60 mins by microplate reader analysis
T1 sequence (P00748 whole entry): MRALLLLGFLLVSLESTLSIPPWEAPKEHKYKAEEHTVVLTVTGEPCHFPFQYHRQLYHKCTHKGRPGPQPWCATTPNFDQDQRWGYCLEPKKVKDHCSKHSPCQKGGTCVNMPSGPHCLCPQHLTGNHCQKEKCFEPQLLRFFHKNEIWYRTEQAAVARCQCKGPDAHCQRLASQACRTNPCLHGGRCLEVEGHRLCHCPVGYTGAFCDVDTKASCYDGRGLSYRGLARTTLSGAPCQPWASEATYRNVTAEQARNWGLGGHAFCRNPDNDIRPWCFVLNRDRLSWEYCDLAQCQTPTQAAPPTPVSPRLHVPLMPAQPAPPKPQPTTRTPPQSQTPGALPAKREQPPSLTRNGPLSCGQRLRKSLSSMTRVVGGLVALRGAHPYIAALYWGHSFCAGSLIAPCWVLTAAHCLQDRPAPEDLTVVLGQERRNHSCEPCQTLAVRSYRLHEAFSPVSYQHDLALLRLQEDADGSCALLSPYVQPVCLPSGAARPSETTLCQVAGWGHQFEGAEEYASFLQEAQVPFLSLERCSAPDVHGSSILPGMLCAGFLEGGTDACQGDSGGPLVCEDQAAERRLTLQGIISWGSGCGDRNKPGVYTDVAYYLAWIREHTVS

[15] = Selectivity index, ratio of IC50 for inhibition of tPA (unknown origin) using H-D-Ile-Pro-Arg-pNA-2HCl as substrate to IC50 for inhibition of human FXIa using p-Glu-Pro-Arg-pNA.HCl as substrate
[16] = Selectivity index, ratio of IC50 for inhibition of trypsin (unknown origin) using Bz-Ile-Glu(gamma-OR)-Gly-Arg-pNA.HCl as substrate to IC50 for inhibition of human FXIa using p-Glu-Pro-Arg-pNA.HCl as substrate
[17] = Selectivity index, ratio of IC50 for inhibition of thrombin (unknown origin) using H-D-Phe-Pip-Arg-pNA.2HCl as substrate to IC50 for inhibition of human FXIa using p-Glu-Pro-Arg-pNA.HCl as substrate
[18] = biological target: Prothrombin (Homo sapiens, UniProt P00734); test: Inhibition of thrombin (unknown origin) using H-D-Phe-Pip-Arg-pNA.2HCl as substrate incubated for 30 mins followed by substrate addition and measured after 60 mins by microplate reader analysis
[19] = biological target: Plasma kallikrein (Homo sapiens, UniProt P03952); test: Inhibition of PKal (unknown origin) using H-D-Pro-Phe-Arg-pNA.2HCl as substrate incubated for 30 mins followed by substrate addition and measured after 60 mins by microplate reader analysis
[20] = test system: HK-2; test: Cytotoxicity against human HK-2 cells assessed as reduction in cell viability at 50 uM incubated for 24 hrs by MTT assay; type: toxicity, cell-based; conditions: hk-2, 24 h
[21] = Selectivity index, ratio of IC50 for inhibition of FXIIa (unknown origin) using H-D-ProPhe-Arg-pNA.2HCl as substrate to IC50 for inhibition of human FXIa using p-Glu-Pro-Arg-pNA.HCl as substrate
[22] = test system: Plasma; test: Anticoagulant activity in citrated human plasma assessed as prolongation of prothrombin time incubated for 3 mins by PT reagent based automated coagulometric analysis; type: functional, cell-free
[23] = test system: Mus musculus; test: Antithrombotic activity in FeCl3-induced carotid arterial thrombosis C57BL/6J mouse model assessed as increase in blood flow velocity at 10 mg/kg, po measured after 0.5 to 4 hrs; type: functional, organism-based; conditions: time 0.5-4 hrs
[24] = test system: Mus musculus; test: Antithrombotic activity in FeCl3-induced carotid arterial thrombosis C57BL/6J mouse model assessed as increase in peak velocity at 10 mg/kg, po measured after 0.5 to 4 hrs; type: functional, organism-based; conditions: time 0.5-4 hrs
[25] = Metabolic stability in human liver microsome assessed as half life; type: ADME; conditions: liver microsomes
[26] = Apparent permeability in MDCK-MDR1 cells; type: ADME, cell-based, Canis lupus familiaris; conditions: dog
[27] = physchem; conditions: aqueous medium, pH 7.4
Description: Aqueous solubility of the compound in DMSO at pH 7.4 incubated for 12 hrs by turbidimetric based UV spectrophotometric analysis

[28] = Cytotoxicity against human AC16 [Human hybrid] cells assessed as reduction in cell viability at 1 to 50 uM incubated for 24 hrs by MTT assay; type: toxicity, cell-based; conditions: dose 1-50 µM
[29] = test system: HK-2; test: Cytotoxicity against human HK-2 cells assessed as reduction in cell viability at 1 to 50 uM incubated for 24 hrs by MTT assay; type: toxicity, cell-based; conditions: hk-2, 24 h, dose 1-50 µM
[30] = test system: HepG2; test: Cytotoxicity against human HepG2 cells assessed as reduction in cell viability at 1 to 50 uM incubated for 24 hrs by MTT assay; type: toxicity, cell-based; conditions: hepg2, 24 h, dose 1-50 µM

Sequence of Plasminogen (P00747 97-580 limits assumed): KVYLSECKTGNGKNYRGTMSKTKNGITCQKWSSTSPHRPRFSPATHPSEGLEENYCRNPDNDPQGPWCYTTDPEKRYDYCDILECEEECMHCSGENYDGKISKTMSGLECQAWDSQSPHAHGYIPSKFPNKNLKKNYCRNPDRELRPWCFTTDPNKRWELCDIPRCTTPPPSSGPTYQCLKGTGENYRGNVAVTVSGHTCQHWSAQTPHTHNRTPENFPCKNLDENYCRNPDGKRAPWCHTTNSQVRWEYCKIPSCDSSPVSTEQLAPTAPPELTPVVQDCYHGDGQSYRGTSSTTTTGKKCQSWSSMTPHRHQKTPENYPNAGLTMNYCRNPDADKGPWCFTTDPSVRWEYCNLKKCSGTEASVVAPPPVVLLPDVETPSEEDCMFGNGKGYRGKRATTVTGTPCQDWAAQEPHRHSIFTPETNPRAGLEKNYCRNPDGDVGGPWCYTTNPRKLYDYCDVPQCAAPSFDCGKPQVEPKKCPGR
Sequence of Plasminogen (P00747 581-810 limits assumed): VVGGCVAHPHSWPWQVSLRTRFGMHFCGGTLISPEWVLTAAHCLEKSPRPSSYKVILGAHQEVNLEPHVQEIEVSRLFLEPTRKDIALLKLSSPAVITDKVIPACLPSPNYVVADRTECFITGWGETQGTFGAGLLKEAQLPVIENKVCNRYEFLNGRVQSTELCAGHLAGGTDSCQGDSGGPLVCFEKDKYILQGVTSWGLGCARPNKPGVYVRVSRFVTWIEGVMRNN
Sequence of Tissue-type plasminogen activator (P00750 whole entry): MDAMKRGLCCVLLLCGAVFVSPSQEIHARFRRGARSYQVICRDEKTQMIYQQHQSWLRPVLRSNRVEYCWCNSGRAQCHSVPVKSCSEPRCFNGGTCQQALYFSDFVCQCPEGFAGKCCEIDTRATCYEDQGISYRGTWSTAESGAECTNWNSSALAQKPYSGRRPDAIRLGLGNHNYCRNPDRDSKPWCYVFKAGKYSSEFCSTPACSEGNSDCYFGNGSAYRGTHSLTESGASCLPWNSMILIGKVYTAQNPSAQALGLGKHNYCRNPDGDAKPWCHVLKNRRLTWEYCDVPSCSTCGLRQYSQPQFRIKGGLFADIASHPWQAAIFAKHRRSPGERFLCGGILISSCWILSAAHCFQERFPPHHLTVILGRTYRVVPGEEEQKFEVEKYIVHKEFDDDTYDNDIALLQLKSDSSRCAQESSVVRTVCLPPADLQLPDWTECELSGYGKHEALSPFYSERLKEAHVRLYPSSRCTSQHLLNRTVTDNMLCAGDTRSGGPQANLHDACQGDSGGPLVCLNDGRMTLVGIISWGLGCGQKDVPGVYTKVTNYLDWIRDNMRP
Sequence of Coagulation factor XI (P03951 19-387 limits assumed): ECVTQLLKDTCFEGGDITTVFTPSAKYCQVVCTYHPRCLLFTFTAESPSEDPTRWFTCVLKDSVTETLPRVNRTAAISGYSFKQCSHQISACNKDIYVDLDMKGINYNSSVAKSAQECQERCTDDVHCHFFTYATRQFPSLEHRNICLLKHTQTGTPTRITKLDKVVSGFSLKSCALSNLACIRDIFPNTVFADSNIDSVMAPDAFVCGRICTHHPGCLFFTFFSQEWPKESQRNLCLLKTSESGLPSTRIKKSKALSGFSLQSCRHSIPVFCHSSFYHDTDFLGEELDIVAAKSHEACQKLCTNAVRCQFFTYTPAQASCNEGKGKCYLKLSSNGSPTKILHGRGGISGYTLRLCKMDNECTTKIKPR
Sequence of Coagulation factor XI (P03951 388-625 limits assumed): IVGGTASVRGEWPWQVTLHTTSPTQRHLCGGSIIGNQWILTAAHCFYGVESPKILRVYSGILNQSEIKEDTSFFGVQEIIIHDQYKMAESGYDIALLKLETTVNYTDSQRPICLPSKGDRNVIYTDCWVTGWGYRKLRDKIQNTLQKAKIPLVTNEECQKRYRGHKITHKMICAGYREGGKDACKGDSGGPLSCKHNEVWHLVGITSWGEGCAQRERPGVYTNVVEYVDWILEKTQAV
Sequence of Coagulation factor X (P00742 41-179 limits assumed): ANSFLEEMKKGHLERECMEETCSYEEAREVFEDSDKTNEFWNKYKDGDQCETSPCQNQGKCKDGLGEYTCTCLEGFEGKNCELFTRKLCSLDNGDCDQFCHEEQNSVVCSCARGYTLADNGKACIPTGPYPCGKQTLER
Sequence of Coagulation factor X (P00742 235-488 limits assumed): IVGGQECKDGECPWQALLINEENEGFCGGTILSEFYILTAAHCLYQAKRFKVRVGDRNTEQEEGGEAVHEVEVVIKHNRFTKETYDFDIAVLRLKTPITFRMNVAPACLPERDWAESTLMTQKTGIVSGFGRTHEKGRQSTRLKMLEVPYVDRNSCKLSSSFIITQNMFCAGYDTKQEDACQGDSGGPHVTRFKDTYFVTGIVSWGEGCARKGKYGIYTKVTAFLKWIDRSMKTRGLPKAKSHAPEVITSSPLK
Sequence of Plasma kallikrein (P03952 20-390 limits assumed): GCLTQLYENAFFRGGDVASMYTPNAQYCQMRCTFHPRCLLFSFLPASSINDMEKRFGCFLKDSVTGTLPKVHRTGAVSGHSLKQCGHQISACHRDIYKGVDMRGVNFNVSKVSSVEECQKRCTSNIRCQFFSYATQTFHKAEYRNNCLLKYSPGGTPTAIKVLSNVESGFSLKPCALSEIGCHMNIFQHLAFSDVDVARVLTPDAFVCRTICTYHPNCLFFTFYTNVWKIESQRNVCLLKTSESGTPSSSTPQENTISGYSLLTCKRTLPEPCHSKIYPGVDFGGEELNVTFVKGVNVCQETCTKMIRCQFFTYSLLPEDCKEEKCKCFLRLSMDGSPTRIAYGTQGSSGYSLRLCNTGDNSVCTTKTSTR
Sequence of Plasma kallikrein (P03952 391-638 limits assumed): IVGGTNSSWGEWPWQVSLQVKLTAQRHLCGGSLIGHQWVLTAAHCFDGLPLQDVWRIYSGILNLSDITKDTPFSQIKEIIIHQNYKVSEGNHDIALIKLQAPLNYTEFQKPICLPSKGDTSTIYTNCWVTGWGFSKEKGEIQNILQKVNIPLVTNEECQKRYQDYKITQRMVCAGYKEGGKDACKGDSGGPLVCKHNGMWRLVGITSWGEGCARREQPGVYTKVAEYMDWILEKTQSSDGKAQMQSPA

Compound: CC[C@@H](c1cc(-c2ccc(N)nc2)ccn1)n1cc(OC)c(-c2cc(Cl)ccc2-n2cnnn2)cc1=O
Activity [4]: Dose-dependent-effect
EC1.5 [4]: 0.29 µM
Activity [1]: 368.3%
Ratio IC50 [5]: > 1000
Ratio IC50 [6]: > 1000
IC50 [7]: > 1000 nM
EC1.5 [8]: 1.8 µM
pIC50 [9]: < 6.00
IC50 [10]: > 1000 nM
Ratio IC50 [11]: > 1000
pIC50 [12]: < 6.00
pIC50 [13]: < 6.00
pIC50 [14]: < 6.00
Ratio IC50 [15]: > 1000
pIC50 [3]: 9.89
Ratio IC50 [16]: > 1000
Ratio IC50 [17]: > 1000
pIC50 [18]: < 6.00
pIC50 [19]: 7.43
Activity [20]: Toxic
Ratio IC50 [21]: > 1000
Activity [22]: inactive

Compound: CC[C@@H](C(=O)Nc1ccc(C(N)=O)c(F)c1)n1cc(OC)c(-c2cc(Cl)ccc2-n2cc(Cl)nn2)cc1=O
Activity [1]: 248.2%
EC1.5 [8]: 2.7 µM
Activity [23]: Active; Outperformed Asundexian And Compound F
Activity [24]: Active

Compound: COc1cn(Cc2cccc(-c3ccncc3)c2)c(=O)cc1-c1cc(Cl)ccc1-n1cnnn1
Activity [1]: 122.1%
fraction unbound [2]: 0.027
pIC50 [3]: 9.30

Compound: COc1cn(Cc2ccc(F)c(-c3ccc(N)nc3)c2)c(=O)cc1-c1cc(Cl)ccc1-n1cc(Cl)nn1
Activity [1]: 55.4%
pIC50 [3]: 8.49

Compound: COc1cn(Cc2cccc(-c3ccc(C(N)=O)cc3F)c2)c(=O)cc1-c1cc(Cl)ccc1-n1cnnn1
Activity [1]: 82.8%
pIC50 [3]: 8.52

Compound: COc1cn(Cc2ccc(F)c(-c3ccncc3)c2)c(=O)cc1-c1cc(Cl)ccc1-n1cnnn1
Activity [1]: 129.8%
pIC50 [3]: 8.74

Compound: COc1cn(C(C)c2cccc(-c3ccncc3)c2)c(=O)cc1-c1cc(Cl)ccc1-n1cnnn1 (configuration not stated)
Activity [1]: 80.1%
pIC50 [3]: 8.62

Compound: COc1ccc(Cn2cc(OC)c(-c3cc(Cl)ccc3-n3cnnn3)cc2=O)cc1-c1ccncc1
Activity [1]: 70%
pIC50 [3]: 8.68

Compound: COc1cn(Cc2ccnc(-c3ccncc3)c2)c(=O)cc1-c1cc(Cl)ccc1-n1cnnn1
Activity [1]: 113.1%
pIC50 [3]: 8.64

Now from value to compound, other results behind:

fraction unbound [2]: 0.004
pIC50 [3]: 9.62
Compound: CCC(c1cccc(-c2ccc(N)nc2)c1)n1cc(OC)c(-c2cc(Cl)ccc2-n2cnnn2)cc1=O (configuration not stated)
Activity [1]: 45.7%

half-life [25]: > 3 h
Papp [26]: 0.13 ×10⁻⁶ cm/s
solubility kinetic at 12 h [27]: 193 µg/mL (≈ 396 µM)
Ratio IC50 [5]: > 1000
Ratio IC50 [6]: > 1000
IC50 [7]: > 1000 nM
pIC50 [9]: < 6.00
IC50 [10]: > 1000 nM
Ratio IC50 [11]: > 1000
pIC50 [12]: < 6.00
pIC50 [13]: < 6.00
pIC50 [14]: < 6.00
Ratio IC50 [15]: > 1000
pIC50 [3]: 9.72
Ratio IC50 [16]: > 1000
Ratio IC50 [17]: > 1000
pIC50 [18]: < 6.00
pIC50 [19]: 7.01
Ratio IC50 [21]: > 1000
Compound: COc1cn(Cc2cc(-c3ccc(N)nc3)ccn2)c(=O)cc1-c1cc(Cl)ccc1-n1cnnn1
Activity [4]: Dose-dependent-effect
EC1.5 [4]: 0.57 µM
Activity [1]: 193.8%
Activity [28]: Non-toxic
Activity [29]: Non-toxic
Activity [30]: Non-toxic
Activity [22]: inactive

Ratio IC50 [5]: > 1000
Ratio IC50 [6]: > 1000
IC50 [7]: > 1000 nM
pIC50 [9]: < 6.00
IC50 [10]: > 1000 nM
Ratio IC50 [11]: > 1000
pIC50 [12]: < 6.00
pIC50 [13]: < 6.00
pIC50 [14]: < 6.00
Ratio IC50 [15]: > 1000
pIC50 [3]: 9.51
Ratio IC50 [16]: > 1000
Ratio IC50 [17]: > 1000
pIC50 [18]: < 6.00
pIC50 [19]: 7.44
Ratio IC50 [21]: > 1000
Compound: CC[C@@H](c1cc(-c2ccc(N)nc2F)ccn1)n1cc(OC)c(-c2cc(Cl)ccc2-n2cnnn2)cc1=O
Activity [4]: Dose-dependent-effect
EC1.5 [4]: 0.34 µM
Activity [1]: 335.4%
EC1.5 [8]: 1.5 µM
Activity [22]: inactive

fraction unbound [2]: 0.159
pIC50 [3]: 8.92
Compound: COc1cn(Cc2cc(-c3ccncc3)ccn2)c(=O)cc1-c1cc(Cl)ccc1-n1cnnn1
Activity [1]: 167.2%

pIC50 [3]: 8.89
Compound: COc1cn(Cc2ccc(F)c(-c3ccc4[nH]ncc4c3)c2)c(=O)cc1-c1cc(Cl)ccc1-n1cnnn1
Activity [1]: 57.1%

pIC50 [3]: 8.33
Compound: COc1cn(Cc2ccc(F)c(-c3ccc(C(N)=O)cc3F)c2)c(=O)cc1-c1cc(Cl)ccc1-n1cnnn1
Activity [1]: 47%

pIC50 [3]: 8.23
Compound: CNC(=O)c1ccc(-c2cccc(Cn3cc(OC)c(-c4cc(Cl)ccc4-n4cnnn4)cc3=O)c2)cc1
Activity [1]: 45.4%

pIC50 [3]: 8.31
Compound: COc1cn(Cc2ccc(F)c(-c3ccncc3)c2)c(=O)cc1-c1cc(Cl)ccc1-n1cc(Cl)nn1
Activity [1]: 74.7%

pIC50 [3]: 7.97
Compound: CC[C@H](c1cc(-c2ccc(N)nc2)ccn1)n1cc(OC)c(-c2cc(Cl)ccc2-n2cnnn2)cc1=O
Activity [1]: 59.6%
Activity [20]: Toxic

pIC50 [3]: 8.38
Compound: COc1cn(Cc2cccc(-c3ccncc3)c2)c(=O)cc1-c1cc(Cl)ccc1-n1cc(Cl)nn1
Activity [1]: 78.1%
